Assay results reported in patent US20160206550A1, “STROMAL DELLS DERIVED CONDITIONED MEDIUM, METHOD OF OBTAINING SAID CONDITIONED MEDIUM COMPOSITIONS, FORMULATIONS AND APPLICATIONS THEREOF” (STEMPEUTICS RESEARCH PVT. LTD., priority 2013, published 2016).

System: HFF-1 cells
Experiment: Cytoprotective/viability restorative effect against tbOH damage (MTT)
Format: cell-based, human
Settings: 100 μM, positive control in serum free medium
Procedure: Cytoprotective viability restorative effects of 10×CM generated by process 2 against oxidative damage in dermal fibroblast cells upon treatment with 300 μM of tert-butyl hydroperoxide (tbOH) for 2 h and post treatment of damaged fibroblast with 10×CM for 48 h is evaluated by MTT assay. Treatment of HFF-1 cells with 300 μM of tbOH leads to 35% decrease in cellular viability in SFM treated as compared to untreated cells. The cytoprotection obtained with 10×CM is 11%, 18% and 12% higher at the doses of 5%, 10% and 50% respectively as compared to respective 10× control medium treated cells against tbOH damage (FIG. 10). In this assay, serum free medium with ascorbic acid (SFM+AA) is used as a positive control. Treatment of HFF-1 cells with 100 μM ascorbic acid (AA) also leads to 12% cytoprotection against tbOH damage. […] 10×CM has shown a trend in the ability to restore the viability of oxidative stressed fibroblast cells at the concentrations 5%, 10% and 50%. Maximum activity is observed at 10% 10×CM.

O=C1O[C@H]([C@@H](O)CO)C(O)=C1O [ascorbic acid]
cytoprotection against tbOH damage: 12%
